We go through 2 molecules from US20110070552A1, “USE OF SECONDARY OPTICAL EMISSION AS A NOVEL BIOFILM TARGETING TECHNOLOGY” (NOMIR MEDICAL TECHNOLOGIES INC, priority 2003, published 2011).

SMILES strings stand for the structures.

Format in all cases: in vivo, human
In assay [1] the test system is biofilm and infection around titanium implant. Briefly: Treatment of infected periimplant tissue: chromophore staining plus 830 nm diode laser hot tip. From the text: (§1) The laser used to exemplify the invention was a 830 nm diode laser with a power output of between 800 mW-1200 mW in the Continuous Wave mode of operation, through a 600 micron silica laser delivery fiber. The live human patients (in vivo) all presented with some advanced state of periodontal or periimplant disease and/or active infection. Presented below are data for two representative patients.
Presented as a brittle diabetic with an infected titanium implant and a fistula draining the infection. Radiographic appearance detailed 8 mm of lost bone, and generalized radiolucency around the medial half of the implant. […] The area was surgically opened with a conventional trapezoidal shaped flap, and the infection and biofilm effected area was bathed in a 0.1% MB solution (sold by Vista Dental Products, Racine, Wis.) for approximately 2 minutes. The area was then irrigated with copious H2O, leaving the targeted biofilm behind, and washing away excess stain. A […] silica fiber connected to an 830 nm dental diode laser was then activated at 1200 mW and the fiber was placed in contact with biofilm and blood products and immediately carbonized. […]

The subject of assay [2] is periodontal and periimplant pockets and infections. Briefly: Procedure performed on 50 patients in periodontal and periimplant pockets and infections. To be noted: 50 patients in the last 24 months, 830 nm diode laser 800 mW-1200 mW CW, 600 micron fiber.
Text: as §1

The subject of assay [3] is biofilm in periodontal pocket. Briefly: Treatment of a recalcitrant 10 mm periodontal pocket: chromophore staining plus 830 nm diode laser hot tip. The following applies: one patient; for periodontal pocket probing depth: baseline 10 mm pocket, 0.1% MB solution, laser 1000 mW.
Text: as §1
Presented as a healthy […] with a recalcitrant 10 mm periodontal pocket on the facial aspect of the maxillary canine (tooth #6) after a regular dental cleaning and scaling. In a minimally invasive procedure, the patient was anesthetized with xylocaine, and the periodontal pocket was infused with 0.1% MB solution via a small bristled brush that easily fits into the volume of the pocket. The MB solution was left for approximately 2 minutes in the area, and then surface irrigation of H2O was applied.
A […] silica fiber connected to a 830 nm dental diode laser (sold by Lumenis Technologies, Yokneam, Israel) was then activated at 1000 mW and the fiber was placed into the periodontal pocket, where it immediately came in contact with biofilm, tissue, and blood products. The tip of the fiber immediately carbonized, and became incandescent. The fiber (with the secondary quantum emissions emanating from the carbonized tip), was then moved around the three dimensional area of the periodontal pocket for a period of 30 to 45 seconds in rapid movements, never staying in one direct area for more than 1 second at a time. The area was then scaled with traditional gracey periodontal scalers (sold by Hu-Friedy Chicago, Ill.), and then irrigated with copious water. The patient was sent home with administration of 600 mg of Ibuprophen (sold by Wyeth, Madison, N.J.) analgesic given chair-side, and no antibiotics.

Take `CN(C)c1ccc2nc3ccc(=[N+](C)C)cc-3sc2c1` [Methylene Blue]: the “infection status of periimplant area” value in assay [1] (one diabetic patient, 0.1% MB solution approx. 2 minutes, laser 1200 mW 60 to 90 seconds, scaling, 5 day Amoxicillin, three weeks post-op) is “completely free of infection”; in assay [1] (same patient, at 9 months), “still infection free”. In addition, in assay [2], the clinical outcome is “successful outcomes”. For the same molecule, the “state of the periodontal pocket” value in assay [3] (0.1% MB solution approx. 2 minutes, laser 1000 mW 30 to 45 seconds, then scaling, eight days post-op) is reported as “completely closed”. Besides, the “periodontal pocket probing depth” value in assay [3] (at four months) and in assay [3] (at six weeks) was 3 mm in each case.
Take `Cc1cc2nc3ccc(N(C)C)cc3[s+]c2cc1N.[Cl-]` [Toludine Blue]: in assay [2], the clinical outcome was “successful outcomes”.
